Test [1] can be described thus: Effectiveness or lethality of biocide composition with substituted components (test not described).
For test [2], the system named is V. fischeri. Description: V. fischeri luminescence assay (killing). As to conditions: for killing by biocide with varied alcohol: 1 mM NH3, 0.05 mM CTAB; for killing by biocide with varied detergent: 1 mM NH3, 0.5% EtOH; for effect of ethanol on V. fischeri luminescence: 1% ethanol alone; for decrease in luminescence: 2 mM. It counts as cell-based, Vibrio fischeri. As to the method: V. fischeri was grown overnight until the culture reached log phase and were brightly luminescent. Since bacterial luminescence is an ATP driven event, light emission is directly related to the metabolism and energy charge state of the organism. […] Samples at given concentrations were added to V. fischeri in a 24 well plate. A small amount was placed in a 96 well plate, agitated, and the luminescence was read in a TECAN well plate reader. For all figures, the total time period that V. fischeri was exposed to each biocide or component was between five and fifteen minutes. […] The right side bars represent a final pH of 9. Low readings indicate killing. […] The purpose of this component is to fluidize the cell membrane to collapse the pH gradient.

[3] abbreviates: 0.05 mM detergent, pH 9.0 (FIG. 6).

For the molecule `CCCO` [propanol], the “effectiveness as component in the composition and method of the invention” value (from here on “effectiveness as component”) in test [1] was “effective”. Besides, the “killing by biocide with varied alcohol” value in test [2] (0.5% alcohol, pH 9.0 (FIG. 7)) is recorded as “some degree of killing”; in test [2] (alcohol raised to 1%, pH 9), “kill effectively”.
Regarding `CCCCCCCCCCCCCCCC[N+](C)(C)C.[Cl-]` [CTAC, Cetyl trimetylammonium chloride], the “killing by biocide with varied detergent” value in test [2] (setting [3]) was “some degree of killing”; in test [2] (detergent raised to 1 mM, pH 9) it was “kill effectively”.
On to `CO` [methanol], for which the “effectiveness as component” value in test [1] is given as “effective”. The “killing by biocide with varied alcohol” value is “some degree of killing” in test [2] (0.5% alcohol, pH 9.0 (FIG. 7)) and “kill effectively” in test [2] (alcohol raised to 1%, pH 9).
For the molecule `CCCCCCCCCCCCOS(=O)(=O)[O-].[Na+]` [SDS, Sodium dodecyl sulfate], the “killing by biocide with varied detergent” value in test [2] (setting [3]) was “some degree of killing”; in test [2] (detergent raised to 1 mM, pH 9), “kill effectively”.
With butanol, in test [1], the “effectiveness as component” value is recorded as “effective”. Moreover, the “killing by biocide with varied alcohol” value is listed as “some degree of killing” in test [2] (0.5% alcohol, pH 9.0 (FIG. 7)) and “kill effectively” in test [2] (alcohol raised to 1%, pH 9).
Take `CCCCCCCCCCCCCC[N+](C)(C)C.[Br-]` [TTAB, Tetradecyl trimethyl ammonium bromide]: the “killing by biocide with varied detergent” value was “some degree of killing” in test [2] (setting [3]) and “kill effectively” in test [2] (detergent raised to 1 mM, pH 9).
As for `OCc1ccccc1` [benzyl alcohol], the “effectiveness as component” value in test [1] was “effective”. In addition, the “killing by biocide with varied alcohol” value is recorded as “some degree of killing” in test [2] (0.5% alcohol, pH 9.0 (FIG. 7)) and “kill effectively” in test [2] (alcohol raised to 1%, pH 9).
For the molecule `N` [ammonia], the “effect of ammonia on V. fischeri luminescence” value in test [2] (ammonia alone, 50 mM or lower, pH 7 or 9, versus pH adjusted H2O control (FIG. 3)) is reported as “no difference from the control”.
Consider `Nc1ccccc1` [aniline], for which the “lethality of biocide with aniline substituted for HAD” value in test [1] (aniline as second hydroxophore component) is recorded as “very lethal”.
On to `CCCCCCCCCCCCCCCC[N+](C)(C)C.[Br-]` [CTAB, Cetyl trimethylammonium bromide], for which the “killing by biocide with varied detergent” value in test [2] (setting [3]) is recorded as “some degree of killing”; in test [2] (detergent raised to 1 mM, pH 9), “kill effectively”.
The matching figures for `CCCCCCCCCCCCCC[N+](C)(C)C.[Cl-]` [TTAC, Tetradecyl trimethyl ammonium chloride]: “some degree of killing” and “kill effectively”.
With `CCO` [ethanol], the “killing by biocide with varied alcohol” value in test [2] (0.5% alcohol, pH 9.0 (FIG. 7)) is “some degree of killing”; in test [2] (alcohol raised to 1%, pH 9), “kill effectively”. For the same molecule, the “effect of ethanol on V. fischeri luminescence” value in test [2] (final pH 7, 5-15 min exposure (FIG. 1)) is “damage”; in test [2] (final pH 9, 5-15 min exposure (FIG. 1)), “damage”. The “higher luminescence reading at pH 9 than same concentration at pH 7” value in test [2] (3% ethanol, pH 9 versus pH 7) is 40%.
As for `CCCCCCCCCCCCCCCCN` [HDA, Hexadecylamine], the decrease in luminescence came to 11% in test [2] (pH 7.5) and 29% in test [2] (pH 9). The “effect of HDA on V. fischeri luminescence” value in test [2] (HDA alone 0-2 mM, pH 7.5 (FIG. 2)) was “little to no effect”; in test [2] (HDA alone, higher concentrations (up to 2 mM), pH 9 (FIG. 2)), “slight effect”.

The record behind these values is patent US20110008469A1, “ANTIMICROBIAL COMPOSITION AND METHODS AND APPARATUS FOR USE THEREOF” (FLORIDA GULF COAST UNIVERSITY, priority 2009, published 2011).
